Experimental data taken from patent US9566263B2, “Methods and formulations for treating scars and β-catenin-mediated disorders” (Hospital for Sick Children, priority 2009, dated 2017).
Entries after “also recorded” stand apart in the source; their conditions may differ.

Experiments:
[1] = system: cultured cells derived from hyperplastic wounds; experiment: SRB cell viability, hyperplastic wound cells; type: cell-based, human; details: hyperplastic wound cell cultures, vs DMSO control, SRB assay
Procedure: (§1) The biological relevance of the screen was considerable since cells used for the screen were obtained from patients with hyperplastic wounds as well as healthy tissue. The experiments were repeated in triplicate within 96 well plates, with each well containing 4000 cells treated with between 0.1 1.0, or 10 μM of compound or DMSO as a control. The Sulforhodamine B assay (SRB) was used to measure cell viability.

[2] = system: normal dermal fibroblast cultures; experiment: SRB cell viability, normal fibroblasts; type: cell-based, human; details: SRB assay
Procedure: as §1

β-catenin [3] = experiment: Western blot of β-catenin in hyperplastic wound cell cultures; type: cell-based, human; details: vs DMSO control
Procedure: Tissue samples were washed twice with PBS and lysed with Reporter Gene Assay Lysis Buffer (Roche). Lysates were centrifuged at 16,000×g for 5 minutes to remove cell debris and quantified using the Bicinchoninic Acid (BCA) Protein Assay (Pierce). Equal amounts of total protein were separated by electrophoresis through an SDS-polyacrylamide gel, transferred to a nitrocellulose membrane (Amersham), and immunoblotted overnight at 4° C. with primary antibodies against phosphoGSK3β ([…], rabbit polyclonal, New England Biolabs), β-catenin (mouse monoclonal, Upstate Biotechnology), total GSK3β (mouse monoclonal, Transduction Laboratories), and GAPDH (mouse monoclonal, Upstate Biotechnology). Horseradish Peroxidase (HRP)-tagged secondary antibodies and Enhanced ChemiLuminescence (Amersham) were used to detect hybridization. Densitometery was performed using the AlphaEaseFC software (Alpha Innotech). Western blotting was performed in triplicates to ensure reproducibility. β-catenin levels in cell cultures from hyperplastic scars treated with Nefopam or control were analyzed using Western blot analysis. […] GAPDH expression was included as a loading control.

[4] = system: aggressive fibromatosis (AF) tumours; experiment: Apc+/Apc1638N AF mouse model; type: in vivo; details: male Apc/Apc1638N mice
From the text: The generation and phenotype of Apc/Apc1638N mice have been well characterized. These mice harbour a targeted mutation at codon 1638 in the Apc gene as a result of a neomycin insert in antisense orientation at exon 15. […] Treatment by daily oral gavaging began 2 months after Apc/Apc1638N mice were weaned and continued for 3 months. At autopsy, AF tumours and intestinal polyps were scored macroscopically. AF tumours and normal tissue were collected for protein extraction and fixed for histological examination.

β-catenin [5] = experiment: Western blot/densitometry of β-catenin in human AF tumour primary cell cultures; type: cell-based
Procedure: Primary cell cultures from the human AF tumour and normal fascial tissue samples were established. Monolayer cultures were cultured in DMEM supplemented with 10% fetal bovine serum and maintained at 37° C. in 5% CO2. Cells were divided when confluent and experiments were performed between the first and fifth passages. […] Tissue samples were washed twice with PBS and lysed with Reporter Gene Assay Lysis Buffer (Roche). Lysates were centrifuged at 16,000×g for 5 minutes to remove cell debris and quantified using the Bicinchoninic Acid (BCA) Protein Assay (Pierce). Equal amounts of total protein were separated by electrophoresis through an SDS-polyacrylamide gel, transferred to a nitrocellulose membrane (Amersham), and immunoblotted overnight at 4° C. with primary antibodies against phosphoGSK3β ([…], rabbit polyclonal, New England Biolabs), β-catenin (mouse monoclonal, Upstate Biotechnology), total GSK3β (mouse monoclonal, Transduction Laboratories), and GAPDH (mouse monoclonal, Upstate Biotechnology). Horseradish Peroxidase (HRP)-tagged secondary antibodies and Enhanced ChemiLuminescence (Amersham) were used to detect hybridization. Densitometery was performed using the AlphaEaseFC software (Alpha Innotech). Western blotting was performed in triplicates to ensure reproducibility.

[6] = system: primary cells derived from human AF tumours; experiment: Trypan Blue cell viability, human AF tumour cells; type: cell-based; details: 5 days, vs 0.1% DMSO
Procedure: (§2) Primary cell cultures from the human AF tumour and normal fascial tissue samples were established. Monolayer cultures were cultured in DMEM supplemented with 10% fetal bovine serum and maintained at 37° C. in 5% CO2. Cells were divided when confluent and experiments were performed between the first and fifth passages.
(§3) Cell viability was measured using the Trypan Blue Dye Exclusion method. Cells were stained with Trypan Blue Dye at a 1:1 ratio, and both live (clear) and dead (blue) cells were accounted for. Proliferation was measured using 5-bromo-2-deoxy-uridine (BrdU) Incorporation assay. After BrdU incubation for 12 hours, cells with incorporated BrdU were identified using […] anti-BrdU antibody and horse anti-mouse antibody conjugated to Alkaline Phosphatase. Presence of BrdU was detected using Alkaline Phosphatase substrate. Percentage of positively stained nuclei out of total nuclei was analyzed over 10 high-powered fields.

[7] = system: primary cells derived from human aggressive fibromatosis tumours; experiment: BrdU incorporation proliferation assay, human AF tumour cells; type: cell-based; details: 5 days, vs DMSO
Procedure: as §2, §3

β-catenin [8] = experiment: Western blot/densitometry of β-catenin in human fibroblast cells; type: cell-based
Procedure: Tissue samples were washed twice with PBS and lysed with Reporter Gene Assay Lysis Buffer (Roche). Lysates were centrifuged at 16,000×g for 5 minutes to remove cell debris and quantified using the Bicinchoninic Acid (BCA) Protein Assay (Pierce). Equal amounts of total protein were separated by electrophoresis through an SDS-polyacrylamide gel, transferred to a nitrocellulose membrane (Amersham), and immunoblotted overnight at 4° C. with primary antibodies against phosphoGSK3β ([…], rabbit polyclonal, New England Biolabs), β-catenin (mouse monoclonal, Upstate Biotechnology), total GSK3β (mouse monoclonal, Transduction Laboratories), and GAPDH (mouse monoclonal, Upstate Biotechnology). Horseradish Peroxidase (HRP)-tagged secondary antibodies and Enhanced ChemiLuminescence (Amersham) were used to detect hybridization. Densitometery was performed using the AlphaEaseFC software (Alpha Innotech). Western blotting was performed in triplicates to ensure reproducibility. Hyperplastic wounds are characterized by elevated β-catenin levels during the proliferative phase.

β-catenin [9] = experiment: Western blot of β-catenin in wounds of Tcf mice; type: in vivo, mouse; details: 40 mg/kg daily intraperitoneal, 14 days post-wounding, vs control
From the text: A Tcf-reporter construct containing the lacZ gene downstream of a c-Fos minimal promoter and three consensus Tcf-binding motifs was constructed. Upon binding of β-catenin/Tcf complex to Tcf motifs, the expression of lacZ is activated. Tcf mice were wounded as described previously: two 4 mm diameter full-thickness skin wounds were generated using a dermal biopsy punch (Miltex Instrument Company, York, Pa., USA). […] At 14 days post-wounding, wound sizes were examined, and wound tissues were collected for RNA and protein extraction and fixed for histological examination. Tissue samples were washed twice with PBS and lysed with Reporter Gene Assay Lysis Buffer (Roche). Lysates were centrifuged at 16,000×g for 5 minutes to remove cell debris and quantified using the Bicinchoninic Acid (BCA) Protein Assay (Pierce). Equal amounts of total protein were separated by electrophoresis through an SDS-polyacrylamide gel, transferred to a nitrocellulose membrane (Amersham), and immunoblotted overnight at 4° C. with primary antibodies against phosphoGSK3β ([…], rabbit polyclonal, New England Biolabs), β-catenin (mouse monoclonal, Upstate Biotechnology), total GSK3β (mouse monoclonal, Transduction Laboratories), and GAPDH (mouse monoclonal, Upstate Biotechnology). Horseradish Peroxidase (HRP)-tagged secondary antibodies and Enhanced ChemiLuminescence (Amersham) were used to detect hybridization. […]

[10] = system: 4 mm full thickness cutaneous wounds; experiment: Wound/scar size in Tcf mice, systemic Nefopam; type: in vivo, mouse; details: 4 mm punch wound, 40 mg/kg daily systemic, day 14 post-wounding, vs saline carrier
From the text: A Tcf-reporter construct containing the lacZ gene downstream of a c-Fos minimal promoter and three consensus Tcf-binding motifs was constructed. Upon binding of β-catenin/Tcf complex to Tcf motifs, the expression of lacZ is activated. Tcf mice were wounded as described previously: two 4 mm diameter full-thickness skin wounds were generated using a dermal biopsy punch (Miltex Instrument Company, York, Pa., USA). […] At 14 days post-wounding, wound sizes were examined, and wound tissues were collected for RNA and protein extraction and fixed for histological examination. […] Cutaneous wounds were generated using a biopsy punch procedure resulting in a 4 mm diameter full thickness circular wound. Scale is in mm units.

hyperplastic scars = experiment: TGF-β induced hyperplastic scar model; type: in vivo, mouse; details: mice, TGF-β injected prior to wounding, 4 mm punch wounds, 40 mg/kg daily
Procedure: Both oral and intraperitoneal administration routes were evaluated (40 mg/kg body weight, daily; 0.1% DMSO as control).

## CN1CCOC(c2ccccc2)c2ccccc2C1 (stereo not drawn) [Nefopam, 5-methyl-1-phenyl-1,3,4,6-tetrahydro-2,5-benzoxazocine]
[1]
  percent cell survival: significant decline in the percent of cells surviving
[2]
  percent cell survival: remained relatively unchanged
β-catenin [3]
  β-catenin protein levels: substantially reduce β-catenin protein levels; also recorded: substantially reduced the protein level of β-catenin
[4]; 40 mg/kg daily oral gavage
  number of epithelial-derived polyps in the upper gastrointestinal tract: no significant differences
[4]; 40 mg/kg daily oral gavage for 3 months, at 6 months of age, mean ± 95% CI
  number of AF tumours formed: 8.18±1.77
β-catenin [5]; 250 μm Nefopam for 5 days vs 0.1% DMSO
  decrease in total β-catenin levels (densitometry): ~5 fold
β-catenin [5]; treatment for 5 days
  total β-catenin protein (92 kDa), Western blot: marked decrease in the amount of protein
[6]
  number of dead cells: the number of dead cells did not change; also recorded: no significant differences in the number of dead cells
  number of live cells: significantly decreased the number of live cells; also recorded: significantly smaller number of live cells
[7]
  percent BrdU+/DAPI+ cells (proliferation): significantly reduces the incorporation of BrdU; also recorded: significantly fewer proliferating cells
β-catenin [8]; human fibroblast cell cultures vs 0.1% DMSO
  decrease in total β-catenin levels (densitometry): approximately 4 fold
β-catenin [8]; immortalized human fibroblast cells vs DMSO
  total β-catenin protein levels, Western blot: significant decrease in total β-catenin protein levels
β-catenin [9]
  β-catenin levels in wounds: decrease in β-catenin levels
[10]
  scar diameter: significantly smaller in diameter
Hyperplastic scars
  hyperplastic scar size: smaller scars
